Structures can show the parent of a compound that is named as a salt.
melting point | SMILES
218 to 220 °C | N=C(N)SCc1cccc2c1-c1c(CSC(=N)N)cccc1C2=O (as salt: hydrobromid) [Example 1.15, (9-oxo-9H-fluorene-4,5-diyl)bis(methylene) dicarbamimidothioate dihydrobromide]
> 230 °C | N=C(N)SCc1cccc2c(=O)c3cccc(CSC(=N)N)c3oc12 (as salt: hydrobromid) [Example 1.16, (9-oxo-9H-xanthene-4,5-diyl)bis(methylene) dicarbamimidothioate dihydrobromide]
> 270 °C (dec.) | Cc1c2cccc(CSC(=N)N)c2nc2c(CSC(=N)N)cccc12 (as salt: hydrobromid) [Example 1.17, (9-methylacridine-4,5-diyl)bis(methylene) dicarbamimidothioate dihydrobromide]
155 to 158 °C | N=C(N)SCc1cccc2c1-c1c(cccc1CSC(=N)N)CSC2 (as salt: hydrobromid) [Example 1.19, (5,7-dihydrodibenzo[c,e]thiepine-1,11-diyl)bis(methylene) dicarbamimidothioate dihydrobromide]
> 250 °C | N=C(N)SCc1cc(F)cc2c1-c1c(CSC(=N)N)cc(F)cc1-2 (as salt: hydrobromid) [Example 5, (3,6-difluorobiphenylene-1,8-diyl)bis(methylene) dicarbamimidothioate dihydrobromide]

Source: patent publication US20090069408A1, “TRICYCLIC COMPOUNDS USEFUL IN TREATING IRON DISORDERS” (XENON PHARMACEUTICALS INC., priority 2007, published 2009)
